These results are taken from patent US12054449B2, “Phenylcarbamate crystalline form and method for manufacturing the same” (BIO-PHARM SOLUTIONS CO., LTD., priority 2021, dated 2024).

The nature of data set [1]: Change of crystalline form on standing or drying (XRPD). It counts as physicochemical. On the procedure: XRPD patterns were detected by CuKα irradiation (30 kV, 10 mA) using a Bruker AXS D2 diffractometer. The analysis was performed using θ-θ geometry and a LynxEye detector at 5 to 42° 2θ with a step size of 0.024° 2θ at 0.1 sec/step.
Samples were run at ambient conditions and prepared as flat specimens using powder received without grinding. About 1 to 2 mg of the sample was lightly pressed on a silicon wafer to obtain a flat surface.

Data set [2] is described as follows: Competitive slurry experiment for Pattern 1 and Pattern 3. It counts as physicochemical. The note with it: 4 days. The procedure: To investigate the relative thermodynamic stability of various crystalline form patterns at room temperature and 50° C., competitive slurry experiments were carried out.
A mixture of Pattern 1 and Pattern 3 (ED01748-028-003-00, 4×20 mg) was dispensed into vials. They were treated with 250 μL of a saturated solution of Pattern 1 (ED01748-006-001-00) in DIPE or heptane (50 mg of ED01748-006-001-00 was treated with DIPE or heptane and heated at 50° C., a portion was removed as needed, and the resulting product was filtered through a 0.45 μm syringe filter, thereby forming a slurry). The produced slurry was stirred at room temperature or 50° C. After analysis, the solid was returned to the vial, and an additional saturated solution was added as needed to maintain the slurry. After 4 days, the purity of the material was confirmed by UPLC.

Structures are written as SMILES.

For the molecule `C[C@H](OC(N)=O)[C@@H](O)c1ccccc1Cl` [Pattern 4, 1-(2-chlorophenyl)-(S)-1-hydroxypropyl-(S)-2-carbamate], the “Change in form by XRPD on drying” value in data set [1] (brief drying whilst standing in the open vial) was “change in form by XRPD from Pattern 4 to a mixture of Pattern 1 and Pattern 3”.

Turning to `C[C@H](OC(N)=O)[C@@H](O)c1ccccc1Cl` [Pattern 8, 1-(2-chlorophenyl)-(S)-1-hydroxypropyl-(S)-2-carbamate], in data set [1] (Pattern 8 from chloroform and heptane), the Change on standing result is listed as “observed to change on standing”. Moreover, the “change on standing o/n” value in data set [1] (solid from Exp. 10, chloroform/Heptane) was “No change”; in data set [1] (solid from Exp. 14, DCM/Heptane), “Small”.

In the case of `C[C@H](OC(N)=O)[C@@H](O)c1ccccc1Cl` [Pattern 6, 1-(2-chlorophenyl)-(S)-1-hydroxypropyl-(S)-2-carbamate], the “Form conversion by XRPD” value was “converted to a mixture of Pattern 6 and Pattern 1” in data set [1] (Pattern 6 material from anisole, stood overnight); “converted to a mixture of Pattern 6 and Pattern 3” in data set [1] (Pattern 6 material from toluene).

Consider `C[C@H](OC(N)=O)[C@@H](O)c1ccccc1Cl` [Pattern 7, 1-(2-chlorophenyl)-(S)-1-hydroxypropyl-(S)-2-carbamate], for which, in data set [1], the Behaviour on standing result is reported as “variable behaviour on standing”.

With `C[C@H](OC(N)=O)[C@@H](O)c1ccccc1Cl` [Pattern 9, 1-(2-chlorophenyl)-(S)-1-hydroxypropyl-(S)-2-carbamate], the “change on standing o/n” value in data set [1] (solid from Exp. 9, chloroform/Toluene) is on record as “No change”; in data set [1] (solid from Exp. 13, DCM/Toluene) it was “No change”.

As to `C[C@H](OC(N)=O)[C@@H](O)c1ccccc1Cl` [ED01748-028-003-00, 1-(2-chlorophenyl)-(S)-1-hydroxypropyl-(S)-2-carbamate], the “UPLC purity of slurry material after 4 days” value in data set [2] (DIPE samples, RT and 50° C.) is 98%; in data set [2] (heptane sample), 98.5%.
